The structures appear in SMILES notation. Square brackets hold non-standard residues; d marks the D form. Peptide text beside a SMILES is read from it. * marks the point of attachment. ξ: configuration not given here. Cbz = O=C(OCc1ccccc1)*; ξM = CSCCC(N)C(=O)O

In general, IC50 refers to the concentration that gives 50% inhibition.

For assay [1], the target named is PfDHODH (Plasmodium falciparum, UniProt Q08210). Nature of the assay: colorimetric DCIP PfDHODH enzyme inhibition assay. Type of assay: biochemical. The settings on record: for % PfDHODH Inhibition at 10 μM: 10 μM compound; for IC50: read-out: PfDHODH IC50.
PfDHODH, sequence (Q08210 24-569): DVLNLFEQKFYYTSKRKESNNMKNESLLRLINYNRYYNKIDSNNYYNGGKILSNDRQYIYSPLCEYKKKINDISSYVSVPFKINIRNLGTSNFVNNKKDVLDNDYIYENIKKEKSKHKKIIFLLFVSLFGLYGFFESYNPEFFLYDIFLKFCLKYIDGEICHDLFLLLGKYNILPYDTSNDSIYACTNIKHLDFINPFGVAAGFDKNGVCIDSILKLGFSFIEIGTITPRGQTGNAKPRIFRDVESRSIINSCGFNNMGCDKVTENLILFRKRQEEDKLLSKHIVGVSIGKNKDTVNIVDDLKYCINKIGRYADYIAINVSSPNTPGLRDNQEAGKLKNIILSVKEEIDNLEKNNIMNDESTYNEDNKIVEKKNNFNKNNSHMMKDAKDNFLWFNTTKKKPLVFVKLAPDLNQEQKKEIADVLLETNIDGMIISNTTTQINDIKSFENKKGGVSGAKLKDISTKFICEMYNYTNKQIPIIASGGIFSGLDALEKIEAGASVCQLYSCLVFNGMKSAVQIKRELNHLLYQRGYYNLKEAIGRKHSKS
Assay [2] deals with hDHODH (Homo sapiens, UniProt Q02127). Nature of the assay: colorimetric DCIP human DHODH enzyme inhibition assay. It is filed as biochemical.
hDHODH, sequence (Q02127 whole entry): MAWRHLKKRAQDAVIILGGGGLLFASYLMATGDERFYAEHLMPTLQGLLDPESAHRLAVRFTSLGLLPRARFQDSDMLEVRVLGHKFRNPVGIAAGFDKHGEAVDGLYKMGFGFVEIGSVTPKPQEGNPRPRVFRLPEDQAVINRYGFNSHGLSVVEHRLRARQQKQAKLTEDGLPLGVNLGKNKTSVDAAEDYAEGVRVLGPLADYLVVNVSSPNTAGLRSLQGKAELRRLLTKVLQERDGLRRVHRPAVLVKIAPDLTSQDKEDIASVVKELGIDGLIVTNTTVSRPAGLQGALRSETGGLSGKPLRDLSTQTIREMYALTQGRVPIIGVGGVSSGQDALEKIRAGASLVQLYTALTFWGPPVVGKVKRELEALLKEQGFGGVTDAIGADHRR
The test system of assay [3] is P. falciparum NF54 strain (PfNF54). Nature of the assay: in vitro antiplasmodial assay, parasite lactate dehydrogenase assay. It is filed as cell-based. The settings on record: Plasmodium falciparum, NF54, read-out: PfNF54 IC50.
Assay [4] shares this test system. Put plainly: in vitro antiplasmodial assay, [3H] hypoxanthine incorporation assay. It is filed as cell-based. The settings on record: Plasmodium falciparum, NF54, read-out: PfNF54 IC50.

Take `CCOC(=O)C(=CNc1cccc2c(O)cccc12)C(=O)OCC` [NSC340225]: the “% PfDHODH Inhibition at 10 μM” value in assay [1] is 3%.

For the compound `CCOC(=O)c1cnc(SC)nc1Nc1ccc(Cl)cc1` [NSC165287], the “% PfDHODH Inhibition at 10 μM” value in assay [1] worked out at 11%.

`CCOC(=O)C(=CNc1cccc(N(C)C)c1)C(=O)OCC` [NSC336047]: in assay [2] (from PfDHODH and hDHODH IC50), the “species-selectivity for PfDHODH over hDHODH” value is “highly species selective”. The IC50 in assay [2] (read-out: hDHODH IC50) was greater than 100 µM; in assay [1], 0.38 µM. The “% PfDHODH Inhibition at 10 μM” value in assay [1] is 93%.

Consider `CCOC(=O)CSC(=S)Nc1ccc(Cl)cc1` [NSC85749], for which, in assay [1], the “PfDHODH inhibition, result in words” value was “moderately active at concentrations above 30 μM”; the “% PfDHODH Inhibition at 10 μM” value was 46%; the IC50 was greater than 100 µM.

With `COC(=O)C(CC(=O)c1ccc2ccccc2c1)OC` (stereo not shown) [NSC72405], in assay [1], the “% PfDHODH Inhibition at 10 μM” value is given as 30% and the IC50 is greater than 100 µM.

Take `CCOC(=O)/C(C#N)=C/NCCc1c[nH]c2ccccc12` [NSC343533]: in assay [1], the “% PfDHODH Inhibition at 10 μM” value turned out to be 50% and the IC50 was determined as 20 µM.

With `C[C@H]1[C@H](OC(=O)CCC(=O)O)O[C@@H]2O[C@@]3(C)CC[C@H]4[C@H](C)CC[C@@H]1[C@@]24OO3` [Artesunate], the concentration for half-maximal inhibition (IC50) in assay [3] amounted to 10 nM; in assay [4] it was 9 nM.

Consider `O=NN(CCCl)C(=O)Nc1ccc2[nH]c3ccccc3c2c1` [NSC 116824], for which, in assay [1], the “% PfDHODH Inhibition at 10 μM” value worked out at 3%.

Regarding `CSCCC(NC(=O)COc1ccc(Cl)cc1Cl)C(=O)O` (stereo not shown) [NSC87887], the “% PfDHODH Inhibition at 10 μM” value in assay [1] was found to be 28%.

Turning to `CCOC(=O)C(=CNc1cc(Cl)ccc1Cl)C(=O)OCC` [NSC137121], the “% PfDHODH Inhibition at 10 μM” value in assay [1] stood at 0%.

Turning to `C=CCN(CC(O)CO)c1ccccc1` (stereo not shown) [NSC58504], in assay [1], the “% PfDHODH Inhibition at 10 μM” value came to 26%.

Turning to `CCOC(=O)C(=CNc1ccc2c(c1)OCO2)C(=O)OCC` [NSC332161], the “% PfDHODH Inhibition at 10 μM” value in assay [1] (10 µM) was 63%. In assay [1], the IC50 was 5.1 µM.

Turning to `CCN(CC)CCCC(C)Nc1ccnc2cc(Cl)ccc12` (stereo not shown) [Chloroquine], the IC50 in assay [3] was determined as 13 nM; in assay [4] it was 12 nM.

For the compound `CSCCC(NC(=O)OCc1ccccc1)C(=O)NCC(=O)O` (stereo not shown) [NSC89636] (Cbz-[ξM]-Gly-OH), the “% PfDHODH Inhibition at 10 μM” value in assay [1] is on record as 26%.

Take `CCOC(=O)C(Cc1c[nH]c2ccc([N+](=O)[O-])cc12)C(=O)OCC` [NSC85231]: the “% PfDHODH Inhibition at 10 μM” value in assay [1] is reported as 28%.

Source of the values: PMC4871132 (Journal of chemical information and modeling, 2016).
